Key:
[1] = target: T1, GST-tagged recombinant human full-length TTK protein kinase (Homo sapiens, UniProt P33981); assay: TTK mobility shift microfluidics assay, single-concentration percent inhibition screen; assay type: biochemical; details: 12.5 nM TTK, 10 μM ATP, mean of duplicate ± SD; for inhibition at 40 µM: compound at 40 μM, 1% DMSO; for inhibition at 400 µM: compound at 400 μM (fragment-like, MW < 300 Da)
T1 construct: GST-tagged recombinant human full-length TTK protein kinase; purchased Invitrogen (Life Technologies Ltd., Paisley, U.K.)
T1 sequence (P33981 1-857): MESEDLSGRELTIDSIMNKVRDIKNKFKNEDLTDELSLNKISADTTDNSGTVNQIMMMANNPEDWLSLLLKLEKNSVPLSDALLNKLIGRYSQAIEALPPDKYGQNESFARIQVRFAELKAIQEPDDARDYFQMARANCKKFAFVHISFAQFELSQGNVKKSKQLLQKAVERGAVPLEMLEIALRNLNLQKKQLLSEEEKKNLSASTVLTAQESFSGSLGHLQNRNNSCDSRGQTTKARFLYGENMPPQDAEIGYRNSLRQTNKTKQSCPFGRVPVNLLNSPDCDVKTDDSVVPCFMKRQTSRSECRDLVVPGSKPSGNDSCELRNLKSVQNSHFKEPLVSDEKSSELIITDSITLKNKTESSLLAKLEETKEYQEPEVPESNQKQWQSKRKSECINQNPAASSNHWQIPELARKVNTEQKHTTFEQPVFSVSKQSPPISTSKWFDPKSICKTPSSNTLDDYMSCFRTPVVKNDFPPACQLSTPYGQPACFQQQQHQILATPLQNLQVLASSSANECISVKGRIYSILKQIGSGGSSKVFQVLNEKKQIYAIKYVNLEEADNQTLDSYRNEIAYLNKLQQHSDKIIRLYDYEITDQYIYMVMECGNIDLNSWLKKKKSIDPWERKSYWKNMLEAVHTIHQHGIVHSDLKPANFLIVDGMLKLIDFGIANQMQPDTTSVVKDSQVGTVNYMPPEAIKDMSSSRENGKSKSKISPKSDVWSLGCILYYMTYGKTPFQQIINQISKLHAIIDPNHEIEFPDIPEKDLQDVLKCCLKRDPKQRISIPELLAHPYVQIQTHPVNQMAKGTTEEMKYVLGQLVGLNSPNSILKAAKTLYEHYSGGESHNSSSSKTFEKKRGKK
Procedure: The TTK kinase activity was measured in a mobility shift microfluidics assay with the Caliper LabChip EZReader II (Caliper Life Sciences, Hopkinton, MA, U.S.A.). For the initial percent inhibition compound screen, all compounds were tested at 40 μM, and fragment-like compounds (MW < 300 Da) were also tested at 400 μM. A 2.14 μM stock of GST-tagged recombinant human full-length TTK protein kinase from Invitrogen (Invitrogen, Life Technologies Ltd., Paisley, U.K.) and custom synthesized peptide from Pepceuticals (Pepceuticals Ltd., Enderby, U.K.) with sequence 5-FAM-[…]-amide were used. […] For every 10 mL of stock buffer, one Roche EDTA free complete mini-protease inhibitor cocktail tablet (Roche, Basel, Switzerland) was added. TTK was used at a final concentration of 12.5 nM. The assay plate was sealed and incubated at room temperature for 60 min. The assay was stopped by addition of stop buffer which contained 100 mM HEPES (pH 7.3), 20 mM EDTA, and 0.05% (v/v) Brij-35. The assay plate was then analyzed using the EZReader II. Z′ for compounds at 40 μM was 0.48, and Z′ for compounds at 400 μM was 0.61.

[2] = target: T1, GST-tagged recombinant human full-length TTK protein kinase; assay: TTK mobility shift microfluidics assay, IC50 determination (3 nM TTK); assay type: biochemical; details: for IC50: 3 nM TTK, 10 μM ATP, duplicate on the same plate; for LE (ligand efficiency): from TTK IC50
[3] = target: T2, TTK kinase domain (residues 519–808) (Homo sapiens, UniProt P33981); assay: Soaking of apo TTK kinase domain crystals with inhibitor, X-ray crystallography; assay type: binding; details: crystals soaked with 10–50 mM compound for 24 h
T2 construct: TTK kinase domain (residues 519–808); inferred from Ni-NTA purification with imidazole elution; made in house; host or cells: E. coli BL21 AI
T2 sequence (P33981 519-808): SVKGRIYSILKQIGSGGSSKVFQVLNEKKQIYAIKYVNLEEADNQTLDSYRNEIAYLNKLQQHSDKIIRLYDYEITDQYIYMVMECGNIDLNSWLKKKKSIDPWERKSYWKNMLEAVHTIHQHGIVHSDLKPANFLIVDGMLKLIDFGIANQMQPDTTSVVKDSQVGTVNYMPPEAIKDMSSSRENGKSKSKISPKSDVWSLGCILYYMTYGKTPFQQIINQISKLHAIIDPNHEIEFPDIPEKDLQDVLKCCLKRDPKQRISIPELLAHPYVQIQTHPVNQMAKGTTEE
Description: In recognition of the desirability of protein–ligand crystal structures to educate the efficient follow-up of fragment-like hit matter and our wish to determine the mode of binding of hits identified with the scaffold-focused virtual screen, we sought co-crystal structures of confirmed hits with TTK. To this end, apo crystals of TTK kinase domain were soaked in buffer solution containing the respective inhibitor (2–9). X-ray data were collected for all crystals, and the structures were solved using molecular replacement. We successfully obtained co-crystal structures of TTK with fragment-like hit compounds 3, 4, 5, and 7. […] A summary of crystallographic analysis is presented in Table 4, and the binding modes of compounds 3, 4, 5, and 7 are illustrated in Figure 7 with Fo–Fc electron density omit maps surrounding the ligand shown in green wire-mesh contoured at 3σ. In all four structures, the activation loop of TTK is disordered, possibly due to the presence of a PEG molecule bound to Lys553, a residue which would usually coordinate with Glu571 to help stabilize the activation loop (Lys553 is not shown in Figure 7 for clarity).
TTK was purified and crystallized as described previously.[26] Plasmids for expression of TTK were received from Stefan Knapp, Structural Genomics Consortium, Oxford, U.K. TTK kinase domain (residues 519–808) was expressed in E. coli BL21 AI competent cells (Invitrogen, Life Technologies Ltd., Paisley, U.K.). Cells were cultured in LB media containing kanamycin selection antibiotic and induced with 0.5 mM IPTG and 1g/L L-arabinose at an OD280 of 0.7. Cells were then incubated overnight at 18 °C with shaking at 225 rpm. Cells were harvested and resuspended in lysis buffer containing 50 mM HEPES pH 7.5, 500 mM NaCl, 10 mM imidazole, 5% (v/v) glycerol, lysozyme, and 1 Roche EDTA free complete protease inhibitor cocktail tablet (Roche, Basel, Switzerland) per 3 L of buffer. TTK was purified using Ni–NTA nickel affinity resin and washed in buffer containing 30 mM imidazole. TTK was then eluted from the resin with 250 mM imidazole. Eluate was concentrated using a Vivaspin concentrator with a 30 kDa molecular weight cutoff (GE Healthcare, Chalfont St. Giles, U.K.) and further purified on gel filtration column Superdex 200 16/60 (GE Healthcare, Chalfont St. Giles, U.K.) equilibrated in buffer containing 10 mM HEPES pH 7.5, 150 mM NaCl, 5 mM DTT, and 5 mM EDTA. The sample was concentrated to a final concentration of 8.9 mg/mL, snap frozen on dry ice, and stored at −80 °C until required.
Purified TTK was crystallized at 18 °C using the sitting drop vapor diffusion method with drops composed of 2 μL protein (8.9 mg/mL) and 2 μL reservoir solution placed over 200 μL reservoir solution of H2O/PEG300 (30–45% (v/v)) in 48 well plates. […]

SMILES: COc1ccc(Nc2nc(Nc3ccc(OC)c(OC)c3)c3[nH]cnc3n2)cc1OC [Compound 22]
- inhibition at 40 µM [1]: 71.5 ± 2.12%
- IC50 ([2]; 1% DMSO): < 0.025 µM

SMILES: c1cc2c(cn1)cnc1sccc12 [Compound 7, thieno[2,3-c][2,7]naphthyridine]
- inhibition at 40 µM [1]: 51 ± 1.41%
- inhibition at 400 µM [1]: 94.5 ± 2.12%
- LE (ligand efficiency) [2]: 0.42

SMILES: N#Cc1ccccc1NC(=O)Cn1ncc2c1-c1ccccc1OC2 [Compound 10]
- inhibition at 40 µM [1]: 53.5 ± 0.71%

SMILES: COc1ccc2c(c1)[nH]c1c(C)nccc12 [Compound 8, harmine]
- inhibition at 40 µM [1]: 19%
- inhibition at 400 µM [1]: 65 ± 1.41%
- IC50 ([2]; 1% DMSO): 160 µM
- LE (ligand efficiency) [2]: 0.32
- binding in ATP binding site of soaked TTK crystals (electron density) [3]: not bound

SMILES: Cc1ccc2[nH]c3c(N4CCCCC4)ncnc3c2c1 [Compound 9]
- inhibition at 40 µM [1]: 68 ± 1.41%
- inhibition at 400 µM [1]: 55.5 ± 2.12%
- IC50 ([2]; 10% DMSO (asterisk)): 246 µM
- LE (ligand efficiency) [2]: 0.25
- binding in ATP binding site of soaked TTK crystals (electron density) [3]: not bound

SMILES: c1ccc(-c2nc3cnccc3[nH]2)nc1 [Compound 6]
- inhibition at 40 µM [1]: 21.5 ± 2.12%
- inhibition at 400 µM [1]: 66%
- IC50 ([2]; 1% DMSO): 91.5 µM
- LE (ligand efficiency) [2]: 0.37
- binding in ATP binding site of soaked TTK crystals (electron density) [3]: not bound

SMILES: COc1ccc(C(=O)c2oc3cc(NC(C)=O)ccc3c2C)cc1OC [Compound 12]
- inhibition at 40 µM [1]: 68.5 ± 2.12%
- IC50 ([2]; 1% DMSO): 4.2 µM
- LE (ligand efficiency) [2]: 0.28

SMILES: c1cc2cnc3ccsc3c2cn1 [Compound 5, thieno[3,2-c][2,6]naphthyridine]
- inhibition at 40 µM [1]: 46 ± 1.41%
- inhibition at 400 µM [1]: 65 ± 2.83%
- LE (ligand efficiency) [2]: 0.44

SMILES: COc1ccc(Nc2ccc3nnnn3n2)cc1OC [Compound 20]
- inhibition at 40 µM [1]: 71.5 ± 0.71%
- inhibition at 400 µM [1]: 24.5 ± 2.12%
- IC50 ([2]; 10% DMSO (asterisk)): 78.6 µM
- LE (ligand efficiency) [2]: 0.28

SMILES: COc1ccc(Nc2nc(N)nc3nc[nH]c23)cc1OC [Compound 13]
- inhibition at 40 µM [1]: 72 ± 1.41%
- inhibition at 400 µM [1]: 86 ± 0.41%
- IC50 ([2]; 1% DMSO): 7.7 µM
- LE (ligand efficiency) [2]: 0.33

SMILES: COc1ccc(Nc2cc(C)nc(SC)n2)cc1OC [Compound 15]
- inhibition at 40 µM [1]: 57.5 ± 2.12%
- inhibition at 400 µM [1]: 75.5 ± 0.71%
- IC50 ([2]; 1% DMSO): 19.6 µM
- LE (ligand efficiency) [2]: 0.32

SMILES: COc1ccc(NC(=O)c2nc[nH]n2)cc1OC [Compound 23]
- inhibition at 40 µM [1]: 23 ± 4.24%
- inhibition at 400 µM [1]: 51 ± 1.41%
- IC50 ([2]; 1% DMSO): > 1000 µM

SMILES: COc1ccc(Nc2cc(-c3ccccc3)ncn2)cc1OC [Compound 14]
- inhibition at 40 µM [1]: 68.5 ± 0.71%
- IC50 ([2]; 1% DMSO): 9.9 µM
- LE (ligand efficiency) [2]: 0.30

SMILES: c1ccc2c(c1)[nH]c1cncnc12 [Compound 4, 5H-pyrimido[5,4-b]indole]
- inhibition at 40 µM [1]: 42.5 ± 0.71%
- inhibition at 400 µM [1]: 63 ± 2.83%
- LE (ligand efficiency) [2]: 0.44

SMILES: COc1ccc(Nc2ncnc3[nH]ncc23)cc1OC [Compound 17]
- inhibition at 40 µM [1]: 69%
- inhibition at 400 µM [1]: 67%
- IC50 ([2]; 1% DMSO): 33.3 µM
- LE (ligand efficiency) [2]: 0.31

SMILES: c1cc2cnc3sccc3c2cn1 [Compound 3, Thieno[2,3-c][2,6]naphthyridine]
- inhibition at 40 µM [1]: 70%
- inhibition at 400 µM [1]: 105.5 ± 0.71%
- LE (ligand efficiency) [2]: 0.45

SMILES: COc1ccc(Nc2ccc3nnc(C(F)(F)F)n3n2)cc1OC [Compound 21]
- inhibition at 40 µM [1]: 59 ± 2.83%
- IC50 ([2]; 10% DMSO (asterisk)): 90.1 µM
- LE (ligand efficiency) [2]: 0.23

SMILES: COc1ccc(Nc2ncnc3sc(-c4ccccc4)cc23)cc1OC [Compound 11]
- inhibition at 40 µM [1]: 64 ± 1.41%
- IC50 ([2]; 1% DMSO): 2.1 µM
- LE (ligand efficiency) [2]: 0.30

SMILES: COc1ccc(Nc2ncnc3nc[nH]c23)cc1OC [Compound 18]
- inhibition at 40 µM [1]: 34 ± 2.83%
- inhibition at 400 µM [1]: 67 ± 0.41%
- IC50 ([2]; 1% DMSO): 40.9 µM
- LE (ligand efficiency) [2]: 0.30

SMILES: COc1ccc(Nc2cc(Cl)nc(N)n2)cc1OC [Compound 19]
- inhibition at 40 µM [1]: 65.5 ± 0.71%
- inhibition at 400 µM [1]: 96.5 ± 0.71%
- IC50 ([2]; 1% DMSO): 56.2 µM
- LE (ligand efficiency) [2]: 0.30

SMILES: COc1ccc(Nc2ncnc3c2cnn3C)cc1OC [Compound 16]
- inhibition at 40 µM [1]: 45.5 ± 2.12%
- inhibition at 400 µM [1]: 82.5 ± 0.71%
- IC50 ([2]; 1% DMSO): 19.3 µM
- LE (ligand efficiency) [2]: 0.31

SMILES: COc1ccc(Nc2cc(C)nc3ncnn23)cc1OC [Compound 24]
- inhibition at 40 µM [1]: 52%
- inhibition at 400 µM [1]: 34.5 ± 0.71%
- IC50 ([2]; 1% DMSO): > 1000 µM

From PMC3665241, “Scaffold-Focused Virtual Screening: Prospective Application to the Discovery of TTK Inhibitors” (Journal of Chemical Information and Modeling, 2013)
